How the values were obtained:
NCI-H1373 cells = test: Efficacy in NCI-H1373 xenograft model; format: in vivo, BALB/c nude mice
Protocol: 6. The Efficacy in NCI-H1373 Xenograft Model
NCI-H1373 cells (5.0E+06 cells) were injected subcutaneously into the right flank of female BALB/c nude mice (6-8 weeks) in a mixture with PBS and Matrigel (Corning) (PBS/Matrigel=1:1 (v/v)). Mice were monitored daily and caliper measurements began when tumors became visible. Tumor volume was calculated by measuring two perpendicular diameters using the formula: (L*W^2)/2 in which L and W refer to the length and width tumor diameter, respectively. When the average tumor volume reached 150-200 mm^3, mice were grouped randomly (n=6/group) and treated with compounds. Tumor volume and mice weight was measured twice a week during treatment (˜ 3 weeks). […] The results are in the following Table 13 and FIG. 8: […]

[1] = Dog pharmacokinetic study; format: in vivo, beagle dog; details: for CL / VSS / AUC0-24 h / Cmax / Oral BA (F %): beagle dog; for CL / VSS: 1 mg/kg, iv; for AUC0-24 h / Cmax / Oral BA (F %): 10 mg/kg, po
Protocol: 4. Dog Pharmacokinetic Study
The purpose of this study was to evaluate the pharmacokinetic properties of compounds in beagle dog following single dose administration. The day before administration, dogs were fasted overnight and free access to water. Four beagle dogs were needed for each compound and the four dogs were divided into two groups (one male (♂) and one female (♀) in each group). Dogs in group A were treated with a single 1 mg/kg dose of compound (iv). Dogs in group B were treated with a single 10 mg/kg dose of compound (po). For dogs in group A, blood samples were collected at pre-dose, and at the time point of 0.083, 0.25, 0.5, 1, 2, 4, 6, 8 and 24 h. For dogs in group B, blood samples were collected at pre-dose, and at the time point of 0.25, 0.5, 1, 2, 4, 6, 8 and 24 h post-dose. Blood samples were placed on ice until centrifugation to obtain plasma samples. The plasma samples were stored at −80° C. until analysis. The concentration of compound in plasma samples were determined using a LC-MS/MS method.

[2] = tested on: NCI-H358 cells expressing KRAS G12C; test: Phospho-ERK1/2(THR202/TYR204) HTRF assay; format: cell-based; details: 2 hours incubation, read-out: p-ERK IC50
Protocol: NCI-H358 cells expressing KRAS G12C were cultured in RPMI 1640 medium (Gibco) containing 10% fetal bovine serum (Gibco). The NCI-H358 cells in culture medium were seeded in 96-well plates at a concentration of 40,000 cells/well and then put in a 37° C./5% CO2 cell incubator to incubate overnight. The next day, culture medium was removed and the compound diluted in assay medium (RPMI 1640, 0.1% FBS) was added in each well. After 2 hours incubation in a 37° C./5% CO2 cell incubator, the assay medium in 96-well plates was removed, then 50 μL of 1× blocking reagent-supplemented lysis buffer (Cisbio) was added and the plates were incubated at 25° C. for 45 min with shaking. 10 μL of cell lysates from the 96-well plates were transferred to a 384-well plate (Greiner) containing 2.5 μL/well HTRF® pre-mixed antibodies (Cisbio 64AERPEH). Incubate 4 hours at 25° C. and then read HTRF signals on Tecan Spark multimode microplate reader. The data were analyzed using a 4-parameter logistic model to calculate IC50 values.

[3] = Cynomolgus monkey pharmacokinetic study; format: in vivo; details: for CL / VSS / AUC0-24 h / Cmax / Oral BA (F %): Cynomolgus monkey; for CL / VSS: 1 mg/kg, iv; for AUC0-24 h / Cmax / Oral BA (F %): 3 mg/kg, po
Protocol: 5. Cynomolgus Monkey Pharmacokinetic Study
The purpose of this study was to evaluate the pharmacokinetic properties of compounds in Cynomolgus monkey following single dose administration. The day before administration, monkeys were fasted overnight and free access to water. Four monkeys are needed for each compound and the four monkeys were divided into two groups (one male(♂) and one female (♀) in each group), group A and group B. Monkeys in group A were treated with a single 1 mg/kg dose of compound (iv). Monkeys in group B were treated with a single 3 mg/kg dose of compound (po). For monkeys in group A, blood samples were collected at pre-dose, and at the time point of 0.083, 0.25, 0.5, 1, 2, 4, 6, 8 and 24 h. For monkeys in group B, blood samples were collected at pre-dose, and at the time point of 0.25, 0.5, 1, 2, 4, 6, 8 and 24 h post-dose. Blood samples were placed on ice until centrifugation to obtain plasma samples. The plasma samples were stored at −80° C. until analysis. The concentration of compound in plasma samples were determined using a LC-MS/MS method.

[4] = Safety exploration in MIA PaCa-2 xenograft model; format: in vivo; details: MIA PaCa-2 xenograft mice, 400 mg/kg, po, QD, 22 days
Protocol: 7. Safety Exploration in MIA PaCa-2 xenograft Model
. Mice were monitored daily and caliper measurements began when tumors became visible. Tumor volume was calculated by measuring two perpendicular diameters using the following formula: (L*W^2)/2 in which L and W refer to the length and width tumor diameter, respectively. After mice were grouped to study the efficacy, the remaining mice (n=6) were used to explore the safety. The mice were treated with 400 mg/kg compound 1-2 (po, QD) for 22 days, and mice body weight was measured twice a week during treatment. […]

C=CC(=O)N1CCN(c2c(C#N)c(=O)n(-c3c(C)ccnc3C(C)C)c3nc(-c4c(N)c(F)c(F)c(F)c4F)c(Cl)cc23)CC1 (atropisomer, axis not shown; (M)) [Compound 1-2, (M)-4-(4-acryloylpiperazin-1-yl)-7-(2-amino-3,4,5,6-tetrafluorophenyl)-6-chloro-1-(2-isopropyl-4-methylpyridin-3-yl)-2-oxo-1,2-dihydro-1,8-naphthyridine-3-carbonitrile]
TGI % (NCI-H1373 cells; 10 mg/kg, QD, Day 21): 103%
Tumor volume at the end (Day 21) (NCI-H1373 cells; 10 mg/kg, QD, start volume 193 mm^3): 144 mm^3
Efficacy in vivo (in words) (NCI-H1373 cells; Table 13 and FIG. 8): excellent efficacy in vivo
Pharmacokinetic properties (in words) ([1]; beagle dog model, compared with Amgen 6 and 6.3): excellent pharmacokinetic properties
CL ([1]; female): 18.1 mL/min/kg
VSS ([1]; female): 1.1 L/kg
AUC0-24 h ([1]; female): 5953 ng·h/mL
Cmax ([1]; female): 2980 ng/mL
Oral BA (F %) ([1]; female): 65.1%
CL ([1]; male): 15.9 mL/min/kg
VSS ([1]; male): 0.9 L/kg
AUC0-24 h ([1]; male): 6724 ng·h/mL
Cmax ([1]; male): 3420 ng/mL
Oral BA (F %) ([1]; male): 64.3%
IC50 [2]: 10.2 nM
CL ([3]; female): 7.19 mL/min/kg
VSS ([3]; female): 0.86 L/kg
AUC0-24 h ([3]; female): 6854 ng·h/mL
Cmax ([3]; female): 2680 ng/mL
Oral BA (F %) ([3]; female): 98.9%
CL ([3]; male): 5.25 mL/min/kg
VSS ([3]; male): 0.61 L/kg
AUC0-24 h ([3]; male): 7938 ng·h/mL
Cmax ([3]; male): 2030 ng/mL
Oral BA (F %) ([3]; male): 83.5%
Pharmacokinetic properties (in words) ([3]; monkey model): excellent pharmacokinetic properties
Safety (mice body weight, FIG. 9) [4]: good safety

Source: patent US12195473B2, “KRAS mutant protein inhibitors” (JACOBIO PHARMACEUTICALS CO., LTD, priority 2019, dated 2025)
